Tests used:
CDK1/Cyclin B1 = CDK1/Cyclin B1 (Homo sapiens (Human), UniProt P06493); assay: CDK1/Cyclin B1 ADP-Glo Kinase Assay; type: biochemical; conditions: 80 uM ATP
In short: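 Luminescent ADP-Glo detection of ADP produced over 90 min at room temperature. Enzyme complex 4.917 nM, pre-exposed 30 min to inhibitor; ATP 80 µM (near Km 78.6 µM), substrate 0.75 µM, HEPES pH 7.5, 2% DMSO. Fractional velocity fitted to 4-parameter IC50 equation.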

[1] = target: CDK2/Cyclin E1 full length (Homo sapiens (Human), UniProt P24941); assay: CDK2/Cyclin E1 Full Length ADP-Glo Kinase Assay; type: biochemical; conditions: 20 uM ATP, read-out: CDK2/ CyclinE1 IC50
In short: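 ADP-Glo luminescence read-out of ADP formed by 0.328 nM wild-type full-length CDK2/Cyclin E1, 90 min at room temperature with 0.75 uM substrate and 20 uM ATP (Km 64.78 uM), after 30 min enzyme–inhibitor pre-incubation; 50 mM HEPES pH 7.5, 2% DMSO. Four-parameter IC50 fit.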

CDK4/Cyclin D1 = CDK4/Cyclin D1 (Homo sapiens (Human), UniProt P11802); assay: CDK4/Cyclin D1 Mobility Shift Assay (MSA); type: biochemical; conditions: 0.2 mM ATP, read-out: CDK4/ CyclinD1 MSA IC50
CDK4/Cyclin D1, sequence (P11802 whole entry): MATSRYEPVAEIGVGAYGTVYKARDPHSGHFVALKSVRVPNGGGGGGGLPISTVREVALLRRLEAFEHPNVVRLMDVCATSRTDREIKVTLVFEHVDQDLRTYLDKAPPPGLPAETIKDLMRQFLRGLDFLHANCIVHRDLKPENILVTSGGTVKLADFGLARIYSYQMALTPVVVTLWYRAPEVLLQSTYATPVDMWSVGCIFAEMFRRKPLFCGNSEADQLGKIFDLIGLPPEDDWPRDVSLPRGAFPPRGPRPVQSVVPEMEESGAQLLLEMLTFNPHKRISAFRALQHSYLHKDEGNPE
CDK4/Cyclin D1, sequence (P24385 whole entry partner): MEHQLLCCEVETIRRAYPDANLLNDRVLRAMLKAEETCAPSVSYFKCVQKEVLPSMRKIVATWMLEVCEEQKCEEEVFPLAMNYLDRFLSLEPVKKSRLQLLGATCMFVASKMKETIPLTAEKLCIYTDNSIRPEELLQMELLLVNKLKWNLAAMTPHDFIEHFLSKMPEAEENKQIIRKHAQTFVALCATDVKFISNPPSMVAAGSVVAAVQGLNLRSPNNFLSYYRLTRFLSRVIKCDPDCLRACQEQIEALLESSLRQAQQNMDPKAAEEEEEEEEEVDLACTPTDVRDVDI
In short: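 Reaction: 2.5 nM enzyme, 0.2 mM ATP, 1.5 µM 5-FAM-Dyrktide, 10 mM MgCl2, 2 mM DTT, 2% DMSO, 50 mM HEPES pH 7.5. Inhibitor was preincubated 30 min at 22 °C, then the reaction ran 180 min before EDTA stop. Microfluidic separation of substrate and product gave % conversion, and IC50 came from a 4-parameter fit.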

CDK6/Cyclin D3 = CDK6/Cyclin D3 (Homo sapiens (Human), UniProt Q00534); assay: CDK6/Cyclin D3 ADP-Glo Kinase Assay; type: biochemical; conditions: 100 uM ATP, read-out: CDK6/ CyclinD3 IC50
CDK6/Cyclin D3, sequence (Q00534 whole entry): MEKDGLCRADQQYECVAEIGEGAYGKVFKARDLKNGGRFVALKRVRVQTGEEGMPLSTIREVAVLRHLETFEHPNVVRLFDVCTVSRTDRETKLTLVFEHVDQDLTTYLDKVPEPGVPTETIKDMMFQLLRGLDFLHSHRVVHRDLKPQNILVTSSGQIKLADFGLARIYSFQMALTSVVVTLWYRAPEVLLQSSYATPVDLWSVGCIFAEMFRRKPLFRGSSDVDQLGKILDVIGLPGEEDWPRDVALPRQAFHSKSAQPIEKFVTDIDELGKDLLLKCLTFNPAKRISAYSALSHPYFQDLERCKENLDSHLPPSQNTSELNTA
CDK6/Cyclin D3, sequence (P30281 whole entry partner): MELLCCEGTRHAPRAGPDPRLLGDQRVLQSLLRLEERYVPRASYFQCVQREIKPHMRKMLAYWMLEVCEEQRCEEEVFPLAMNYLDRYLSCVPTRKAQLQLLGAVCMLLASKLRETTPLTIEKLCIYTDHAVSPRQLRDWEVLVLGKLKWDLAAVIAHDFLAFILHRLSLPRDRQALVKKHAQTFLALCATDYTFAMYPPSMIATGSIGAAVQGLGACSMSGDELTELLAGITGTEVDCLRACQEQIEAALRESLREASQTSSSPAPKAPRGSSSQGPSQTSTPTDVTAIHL
In short: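 Luminescent ADP-Glo read-out of ADP produced, used to fit IC50 (4-parameter equation on fractional velocity against inhibitor concentration). Kinase reaction: enzyme and inhibitor together 30 min, then ATP-containing substrate added for 90 min, all at room temperature.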

MCF-7 cells = assay: Cell Growth Inhibition, MCF-7 (CellTiterGlo, 6 days); type: cell-based; conditions: Homo sapiens, MCF7, 144 h; MCF-7, 6-day treatment, CellTiterGlo 2.0
In short: (§1)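 Compounds were run in half-log series, usually 10–10,000 nM, with 500 cells/well of OVCAR-3 or MCF-7 in RPMI plus 10% FBS. After a 6-day culture at 37 °C, viability was read by CellTiterGlo luminescence. Inhibition relative to control was fitted (four-parameter, variable slope) for IC50.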

OVCAR-3 cells = assay: Cell Growth Inhibition, OVCAR-3 (CellTiterGlo, 6 days); type: cell-based; conditions: Homo sapiens, 144 h; OVCAR-3, 6-day treatment, CellTiterGlo 2.0
In short: as §1

CDK1/Cyclin B1, sequence (P06493 whole entry): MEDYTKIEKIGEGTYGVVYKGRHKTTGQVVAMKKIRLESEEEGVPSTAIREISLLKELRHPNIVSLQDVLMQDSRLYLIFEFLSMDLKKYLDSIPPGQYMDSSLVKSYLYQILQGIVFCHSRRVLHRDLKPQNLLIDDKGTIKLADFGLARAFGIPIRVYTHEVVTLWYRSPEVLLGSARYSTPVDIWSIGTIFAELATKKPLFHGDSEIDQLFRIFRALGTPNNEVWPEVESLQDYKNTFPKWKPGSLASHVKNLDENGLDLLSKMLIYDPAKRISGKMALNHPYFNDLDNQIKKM
CDK1/Cyclin B1, sequence (P14635 whole entry partner): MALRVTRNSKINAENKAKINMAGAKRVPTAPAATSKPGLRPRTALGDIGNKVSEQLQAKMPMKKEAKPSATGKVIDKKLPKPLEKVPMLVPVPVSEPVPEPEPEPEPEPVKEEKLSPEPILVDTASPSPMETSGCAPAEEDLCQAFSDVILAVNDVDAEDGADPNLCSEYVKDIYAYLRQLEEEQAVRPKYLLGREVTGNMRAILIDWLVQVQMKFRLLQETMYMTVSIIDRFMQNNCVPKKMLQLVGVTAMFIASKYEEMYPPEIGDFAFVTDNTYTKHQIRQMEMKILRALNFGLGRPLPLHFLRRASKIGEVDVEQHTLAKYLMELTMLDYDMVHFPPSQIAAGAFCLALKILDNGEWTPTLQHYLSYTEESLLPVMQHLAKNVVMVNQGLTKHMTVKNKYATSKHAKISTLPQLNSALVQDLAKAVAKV

Row | IC50 (CDK1/Cyclin B1) [nM] | IC50 [1] [nM] | IC50 (CDK4/Cyclin D1) [nM] | IC50 (CDK6/Cyclin D3) [nM] | IC50 (MCF-7 cells) [nM] | IC50 (OVCAR-3 cells) [nM] | Structure (SMILES)
1 | > 2000 | > 2000 | < 200 | 200 to 500 | 500 to 2000 | > 2000 | CCN1CC2(C1)CN(c1ccc(Nc3ncc4cccc(N5CCC6(CCN(C(C)=O)C6)C5)c4n3)nc1)C2 (stereo not drawn) [Example 46, 1-(7-(2-((5-(6-ethyl-2,6-diazaspiro[3.3]heptan-2-yl)pyridin-2-yl)amino)quinazolin-8-yl)-2,7-diazaspiro[4.4]nonan-2-yl)ethan-1-one]
2 | > 2000 | < 200 | < 200 | < 200 | > 2000 | > 2000 | CC(=O)N1CCC2(CCN(c3cccc4cnc(NC5CCN(S(C)(=O)=O)CC5)nc34)C2)C1 (stereo not drawn) [Example 6, 1-(7-(2-((1-(methylsulfonyl)piperidin-4-yl)amino)quinazolin-8-yl)-2,7-diazaspiro[4.4]nonan-2-yl)ethan-1-one]

From patent US20240092761A1, “QUINAZOLINE COMPOUNDS AND METHODS OF USE” (IAMBIC THERAPEUTICS, INC., priority 2022, published 2024)
